Test results published in patent US20080214471A1, “Method for inhibition of viral infection” (priority 1992, published 2008).

Legend:
[1] = Serum alanine aminotransferase (ALT) assay for non-specific toxicity; conditions: HBV-transgenic mice, 50 mg/kg/day IP for one week, on average
[2] = test system: Huh-7 cells; test: Free HBV surface antigen assay (general protein synthesis and secretion); type: cell-based; conditions: at a concentration that effectively inhibits HDV virion production
Excerpt: (§1) FIG. 8 illustrates that FT1-277 inhibits production of HDV virions. Huh-7 cells were co-transfected with HDV and HBV encoding plasmids to establish production of HDV virions, as described in the text, and grown in the presence of the indicated concentrations of FTI-277. HDV genome replication in the cells, and the amount of HDV genome-containing virions released into the supernatants, were monitored by northern blot analysis with a probe for HDV genomic RNA (left panel). The results were quantitated with a phosphoimager and the amount of virions produced at each concentration of FTI-277, expressed as a percentage of the no drug control, was plotted (purple bars, right panel). Also plotted are the results of assays for cellular metabolism (XTT assay, yellow bars), and general protein synthesis and secretion (HBV surface antigen released into the media supernatants, blue bars).
(§2) FTI-277, a prenylation inhibitor, was tested for its ability to inhibit HDV virion production. […] Non-specific toxicity was assessed by free HBV surface antigen assay, which assesses effects on general protein synthesis and secretion, and a standard XTT assay, which measures overall cell metabolism.

[3] = test system: Huh-7 cells; test: Standard XTT assay (overall cell metabolism); type: cell-based; conditions: at a concentration that effectively inhibits HDV virion production
Excerpt: as §1, §2

[4] = test system: HDV virions; test: Inhibition of HDV virion production in co-transfected Huh-7 cells (northern blot for HDV genomic RNA); type: cell-based, hepatitis delta virus (HDV); conditions: Huh-7 cells co-transfected with HDV and HBV plasmids
Excerpt: as §1
Completely infectious HDV particles were produced using the system disclosed in Sureau et al., J. Virol., 66:1241-5 (1992). […]
as §2

[5] = test system: HDV virions; test: In vivo treatment of HDV in HBV-transgenic mice, serum HDV virions by RT-PCR; conditions: 50 mg/kg/day IP for one week

## COC(=O)[C@H](CCSC)NC(=O)c1ccc(NC[C@@H](N)CS)cc1-c1ccccc1 [FTI-277]
[1]
  level of ALT compared with the placebo: same level of ALT as the placebo
[2]
  general protein synthesis and secretion (free HBV surface antigen released into media): essentially does not affect
[3]
  overall cell metabolism (XTT assay): essentially does not affect
[4]; micromolar concentration
  HDV virion production: no detectable HDV virions produced
[4]; mid-nanomolar concentration
  HDV virion production: dramatically inhibited
[5]
  production and release of HDV virions into the serum: completely eliminated
